Experimental data from US6488967B1, “Gastric acid secretion” (Phytopharm PLC, priority 1999, dated 2002).
Values joined by “and” are separate entries in the source; they are usually repeats but may differ in a detail not shown here. Equal values may be shown once. “Also recorded” adds a separate entry of the source.

How the values were obtained:
[1] = system: aspirin-induced damage to the stomach; assay: aspirin-induced damage to the stomach in the rat; type: in vivo; parameters: key to Gastric damage score (individual rat) / Gastric damage score, Mean: small haemorrhage 1, large haemorrhage 2, small ulcer 3, large ulcer 4 points; details: for average reduction in gastric damage: vs control group; for Gastric damage score, Mean / Gastric damage score (individual rat): aspirin about 600 mg/kg orally, after 5 hours; for Gastric damage score, Mean: mean of eight rats; for Gastric damage score (individual rat): single animals
Description: Three groups each containing eight rats were given aspirin in 0.5% CMC orally at a dose of about 600 mg/kg (1.0 ml of 60 mg/ml). The first group (the control group) was additionally given 0.5% CMC. The second group was given compound P57AS3 at a dose rate of 100 mg/kg; and the third group (comparative group) was given cimetidine at a dose rate of 20 mg/kg. […] Damage was assessed on a scale in which each small haemorrhage scored one point; each large haemorrhage scored two points; each small ulcer scored three points; and each large ulcer scored four points.

[2] = system: gastric acid secretion; assay: gastric acid secretion in the pylorus-ligated rat; type: in vivo
Description: The effect of both the spray dried extract (sap from Hoodia gordonii)-referred to hereinafter as […]-and the purified compound P57AS3 were examined for effects on gastric acid secretion in the pylorus-ligated rat. Male Sprague-Dawley derived CD rats, 175-230 g, were used. On the day before the test, rats were outfitted with stainless steel tail cups to prevent coprophagy, housed individually with water allowed ad lib, and fasted overnight (18 hr). In one test the […] (5 or 50 mg/kg), or cimetidine (10 mg/kg) or vehicle (water) was orally administered to the rats immediately before fasting. Water was removed 30 minutes prior to ligation on the morning of the test. […] In a second experiment, purified compound P57AS3 was administered intraduodenally (i.d.) at 1 or 10 mg/kg at the time of the pylorus ligation. In this experiment with intraduodenal administration of P57AS3, vehicle (DMSO), cimetidine (10 mg/kg) or P57AS3 (1 or 10 mg/kg) was administered immediately after ligation. The incisions were then closed with staples. In the experiments with subcutaneous administration of P57, vehicle (DMSO), cimetidine (10 mg/kg) or P57, 10 or 30 mg/kg were injected subcutaneously in the nape of the neck immediately after the incisions were closed. Two hours after ligation, the rats were killed, the contents of each stomach collected and cleaned by centrifugation (30 minutes at 2000×g), and the volume of gastric fluid in each stomach was determined. Using a Radiometer pH meter and autotitrator, the pH and acid concentration of each gastric sample was determined by titration to pH 7 with 0.1N NaOH. Results are expressed as μeq/hr/100 g (body weight) and % vehicle control.

[3] = system: spontaneously beating guinea pig right atria; assay: isolated tissue: spontaneously beating right atria; details: concentrations ≦10 μM
Description: (§1) Purified P57AS3 was examined for binding affinity to a variety of receptors, channels, and uptake sites in vitro. […], In isolated tissue studies, P57AS3 at concentrations ≦10 μM had no effect on the rate of spontaneously beating guinea pig right atria or on the force of contraction of electrically stimulated left atria. […] P57AS3 had no effect on resting tension of isolated guinea pig gallbladder, ileum or trachea, or on CCK octapeptide-induced contractions of the gallbladder (CCK-A receptor mediated), histamine induced contractions of the guinea pig ileum (H1 receptor mediated), or acetylcholine-induced contractions of the guinea pig ileum (M3 receptor mediated).

[4] = system: electrically stimulated left atria; assay: isolated tissue: electrically stimulated left atria; parameters: species or system guinea pig
Description: as §1

[5] = system: isolated guinea pig gallbladder; assay: isolated tissue: resting tension of gallbladder
Description: as §1

[6] = system: isolated guinea pig ileum; assay: isolated tissue: resting tension of ileum
Description: as §1

[7] = system: isolated guinea pig trachea; assay: isolated tissue: resting tension of trachea
Description: as §1

[8] = molecular target: T1, CCK-A receptor (Cavia porcellus, UniProt Q63931); assay: CCK octapeptide-induced contractions of the gallbladder; parameters: species or system guinea pig; details: CCK-A receptor mediated
T1 construct: P57AS3 had no effect on resting tension of isolated guinea pig gallbladder, ileum or trachea; from tissue; host or cells: isolated guinea pig gallbladder
T1 sequence (Q63931 1-430): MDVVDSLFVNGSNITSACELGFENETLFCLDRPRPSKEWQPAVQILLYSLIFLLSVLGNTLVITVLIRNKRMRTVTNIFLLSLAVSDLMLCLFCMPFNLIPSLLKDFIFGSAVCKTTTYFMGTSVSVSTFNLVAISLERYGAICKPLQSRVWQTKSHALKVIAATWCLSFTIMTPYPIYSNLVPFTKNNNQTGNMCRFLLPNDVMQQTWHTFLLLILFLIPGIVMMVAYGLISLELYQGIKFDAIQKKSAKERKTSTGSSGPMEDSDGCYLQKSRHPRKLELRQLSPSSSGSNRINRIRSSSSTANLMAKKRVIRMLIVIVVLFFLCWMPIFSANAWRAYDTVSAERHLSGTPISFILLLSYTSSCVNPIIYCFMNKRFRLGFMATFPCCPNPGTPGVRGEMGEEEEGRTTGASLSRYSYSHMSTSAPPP
Description: as §1

[9] = molecular target: T2, H1 receptor (Cavia porcellus, UniProt P31389); assay: histamine induced contractions of the guinea pig ileum; details: H1 receptor mediated
T2 construct: histamine induced contractions of the guinea pig ileum (H1 receptor mediated); from tissue; host or cells: isolated guinea pig ileum
T2 sequence (P31389 whole entry): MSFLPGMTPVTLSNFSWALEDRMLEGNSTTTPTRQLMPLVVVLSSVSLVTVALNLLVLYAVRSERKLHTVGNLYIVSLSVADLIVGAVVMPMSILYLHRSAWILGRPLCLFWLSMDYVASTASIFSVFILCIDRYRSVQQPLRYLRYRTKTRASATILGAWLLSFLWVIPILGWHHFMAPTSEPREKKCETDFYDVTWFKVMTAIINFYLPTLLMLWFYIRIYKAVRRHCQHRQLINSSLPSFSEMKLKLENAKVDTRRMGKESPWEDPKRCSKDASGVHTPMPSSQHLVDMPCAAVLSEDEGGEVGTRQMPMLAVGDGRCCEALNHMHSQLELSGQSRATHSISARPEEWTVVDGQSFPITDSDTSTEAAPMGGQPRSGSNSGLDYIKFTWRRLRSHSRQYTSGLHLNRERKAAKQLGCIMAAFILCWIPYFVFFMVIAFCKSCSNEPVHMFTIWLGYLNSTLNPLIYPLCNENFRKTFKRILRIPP
Description: as §1

[10] = molecular target: T3, M3 receptor (Cavia porcellus, UniProt H0W1Z3); assay: acetylcholine-induced contractions of the guinea pig ileum; details: M3 receptor mediated
T3 construct: acetylcholine-induced contractions of the guinea pig ileum (M3 receptor mediated); from tissue; host or cells: isolated guinea pig ileum
T3 sequence (H0W1Z3 1-590): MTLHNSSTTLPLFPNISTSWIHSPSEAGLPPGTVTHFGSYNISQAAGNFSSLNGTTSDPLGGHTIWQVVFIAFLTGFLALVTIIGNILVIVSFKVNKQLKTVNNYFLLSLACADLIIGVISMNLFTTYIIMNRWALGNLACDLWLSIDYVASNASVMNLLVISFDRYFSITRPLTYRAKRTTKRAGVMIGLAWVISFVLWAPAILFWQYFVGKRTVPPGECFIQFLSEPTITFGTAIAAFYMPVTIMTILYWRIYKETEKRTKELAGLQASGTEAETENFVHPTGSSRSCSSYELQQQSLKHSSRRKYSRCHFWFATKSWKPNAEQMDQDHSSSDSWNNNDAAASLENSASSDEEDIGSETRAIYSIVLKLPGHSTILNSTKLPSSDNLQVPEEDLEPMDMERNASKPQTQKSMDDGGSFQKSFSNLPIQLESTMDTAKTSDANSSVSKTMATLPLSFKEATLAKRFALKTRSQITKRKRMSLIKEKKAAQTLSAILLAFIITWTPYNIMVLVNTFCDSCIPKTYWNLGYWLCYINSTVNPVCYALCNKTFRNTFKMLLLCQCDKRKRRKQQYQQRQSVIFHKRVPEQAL
Description: as §1

[11] = system: M3 receptor; assay: carbachol-induced contractions of the guinea pig trachea; details: M3 receptor mediated, concentrations ≧1 μM
Description: as §1

[12] = 10 mg/kg sc, 1 of 3 experiments

For `CN/C(=N/CCSCc1nc[nH]c1C)NC#N` [Cimetidine, cimetidine, reference compound], the “average reduction in gastric damage” value ([1]; 20 mg/kg) was 93.2%, the “Gastric damage score, Mean” value ([1]; oral 20 mg/kg) was 0.50 and the “Gastric damage score (individual rat)” value ([1]; oral 20 mg/kg) was 0 (7×) and 4.

In the case of `C/C=C(\C)C(=O)O[C@@H]1C[C@H]2[C@@H](CC=C3C[C@@H](O[C@H]4C[C@H](OC)[C@H](O[C@H]5C[C@H](OC)[C@H](O[C@@H]6O[C@H](C)[C@@H](O)[C@H](OC)[C@H]6O)[C@@H](C)O5)[C@@H](C)O4)CC[C@@]32C)[C@@]2(O)CC[C@H](C(C)=O)[C@@]12C` [P57AS3, 3-O-[-β-D-thevetopyranosyl-(1→4)-β-D-cymaropyranosyl-(1→4)-β-D-cymaropyranosyl]-12β-O-tigloyloxy-14-hydroxy-14β-pregn-5-en-20-one], the “average reduction in gastric damage” value ([1]; 100 mg/kg) is reported as 91.5%, the “Gastric damage score, Mean” value ([1]; oral 100 mg/kg) is reported as 0.63 and the “Gastric damage score (individual rat)” value ([1]; oral 100 mg/kg) is reported as 0 (6×) and 3 and 2. For the same compound, the “effect on gastric acid secretion” value ([2]; 1 mg/kg i.d. at the time of pylorus ligation) was “no effect”, the “decrease of acid secretion (acid output)” value ([2]; 10 mg/kg i.d. at the time of pylorus ligation) was 88% and the “effect on gastric acid secretion” value [2, 12] was “significant decrease”. For the same compound, the “reduction of gastric acid secretion” value [2, 12] was 43%, the “effect on gastric acid output” value ([2]; 10 mg/kg sc, 2 of 3 experiments) was “not significantly different from vehicle-treated controls; also recorded: no effect” and the “effect on gastric acid output” value ([2]; 30 mg/kg sc, one experiment) was “not significantly different from vehicle-treated controls; also recorded: no effect”. For the same compound, the “Acid Output % Control mean ± sd” value ([2]; Exp. II, 1 mg/kg id) was 109.0 ± 37.8 % Control, the “Acid Output % Control mean ± sd” value ([2]; Exp. II, 10 mg/kg id) was 12.4 ± 1.1 % Control and the “Acid Output % Control mean ± sd” value ([2]; Exp. III, 10 mg/kg sc) was 48.9 ± 29.2 % Control. The “Acid Output % Control mean ± sd” value ([2]; Exp. IV, 10 mg/kg sc) was 74.0 ± 38.0 % Control, the “Acid Output % Control mean ± sd” value ([2]; Exp. V, 10 mg/kg sc) was “*57.1 ± 19.8 % Control” and the “Acid Output % Control mean ± sd” value ([2]; Exp. VI, 30 mg/kg sc) was 63.7 ± 17.3 % Control. The “effect on the rate of spontaneously beating right atria” value [3] was “no effect”, the “effect on basal tension of electrically stimulated left atria” value ([4]; concentrations of 1 μM and higher) was “intermittent and transient elevations” and the “effect on the force of contraction of electrically stimulated left atria” value ([4]; concentrations ≦10 μM) was “no effect”. For the same compound, the “effect on resting tension of gallbladder” value [5] was “no effect”, the “effect on resting tension of ileum” value [6] was “no effect” and the “effect on resting tension of trachea” value [7] was “no effect”. The “effect on CCK octapeptide-induced contractions of the gallbladder” value [8] was “no effect”, the “effect on histamine induced contractions of the ileum” value [9] was “no effect” and the “effect on acetylcholine-induced contractions of the ileum” value [10] was “no effect”. The “effect on carbachol-induced contractions of the trachea” value [11] was “noncompetitively inhibited”.
